Measured values from the supplement of paper PMC10307832.

Key:
Experiment in all cases: relative viability (nuclei count vs DMSO), 5 days (fraction); higher = more cells survive
[1] = compound: COc1cc2c(Oc3ccc4[nH]c(C)cc4c3F)ncnc2cc1OCCCN1CCCC1 [Cediranib] + Cc1nc(Nc2ncc(C(=O)Nc3c(C)cccc3Cl)s2)cc(N2CCN(CCO)CC2)n1 [Dasatinib] (partner 0.075 µM)
Procedure, shortened: (§1)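 Lung cancer cell lines in 1536-well plates were dosed by pin tool the day after seeding, either with one drug alone or with a fixed anchor-drug dose plus five library-drug doses (not always all listed) in √10 steps. After 5 days, cells were fixed and their nuclei stained in one step (final 0.05% Triton X-100, 1% formaldehyde, 1 ug/ml Hoechst), then counted on 4× images. Relative viability is the nuclei count in treated wells divided by that in vehicle wells. Values are medians of duplicate plates.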

[2] = compound: COc1cc2c(Oc3ccc4[nH]c(C)cc4c3F)ncnc2cc1OCCCN1CCCC1 [Cediranib] + O=C(CCCCCCC(=O)Nc1ccccc1)NO [Vorinostat] (partner 1 µM)
Procedure, shortened: as §1

[3] = compound: Nc1ncn([C@H]2C[C@H](O)[C@@H](CO)O2)c(=O)n1 [Decitabine] + Nc1nc2[nH]cc(CCc3ccc(C(=O)N[C@@H](CCC(=O)O)C(=O)O)cc3)c2c(=O)[nH]1 [Pemetrexed] (partner 0.2 µM)
Procedure, shortened: as §1

[4] = compound: Nc1ncn([C@H]2C[C@H](O)[C@@H](CO)O2)c(=O)n1 [Decitabine] + CCNC(=O)c1noc(-c2cc(C(C)C)c(O)cc2O)c1-c1ccc(CN2CCOCC2)cc1 [Luminespib] (partner 0.01 µM)
Procedure, shortened: as §1

Cell Line | relative viability ([1]; first compound 0.04 µM) | relative viability ([1]; first compound 0.1265 µM) | relative viability ([1]; first compound 0.4 µM) | relative viability ([1]; first compound 1.265 µM) | relative viability ([1]; first compound 4 µM) | relative viability ([2]; first compound 0.04 µM) | relative viability ([2]; first compound 0.1265 µM) | relative viability ([2]; first compound 0.4 µM) | relative viability ([2]; first compound 1.265 µM) | relative viability ([2]; first compound 4 µM) | relative viability ([3]; first compound 0.04 µM) | relative viability ([3]; first compound 0.1265 µM) | relative viability ([3]; first compound 0.4 µM) | relative viability ([3]; first compound 1.265 µM) | relative viability ([3]; first compound 4 µM) | relative viability ([4]; first compound 0.04 µM) | relative viability ([4]; first compound 0.1265 µM) | relative viability ([4]; first compound 0.4 µM) | relative viability ([4]; first compound 1.265 µM) | relative viability ([4]; first compound 4 µM)
NCI-H1651 | 0.53 | 0.46 | 0.432 | 0.385 | 0.343 | 0.518 | 0.591 | 0.58 | 0.53 | 0.555 | 0.543 | 0.43 | 0.434 | 0.331 | 0.278 | 0.942 | 0.844 | 0.828 | 0.69 | 0.658
NCI-H1666 | 0.831 | 0.888 | 0.797 | 0.829 | 0.762 | 1.18 | 1.06 | 0.908 | 0.955 | 1.03 | 0.874 | 0.79 | 0.712 | 0.641 | 0.504 | 0.927 | 0.964 | 0.815 | 0.674 | 0.726
NCI-H1734 | 0.463 | 0.647 | 0.479 | 0.364 | 0.518 | 0.718 | 0.805 | 0.77 | 0.768 | 0.911 | 0.345 | 0.323 | 0.293 | 0.262 | 0.284 | 0.182 | 0.172 | 0.165 | 0.192 | 0.157
NCI-H1755 | 0.471 | 0.59 | 0.343 | 0.463 | 0.424 | 0.808 | 0.65 | 0.683 | 0.763 | 0.762 | 0.477 | 0.376 | 0.406 | 0.419 | 0.365 | 0.451 | 0.528 | 0.441 | 0.394 | 0.278
NCI-H1793 | 0.317 | 0.415 | 0.398 | – | 0.501 | 0.954 | 0.679 | 0.67 | 0.49 | 0.797 | 0.692 | 0.875 | 0.511 | 0.44 | 0.303 | 0.154 | 0.212 | 0.19 | 0.176 | 0.213
NCI-H1915 | 0.279 | 0.305 | 0.305 | 0.324 | 0.345 | 0.5 | 0.426 | 0.485 | 0.501 | 0.544 | 0.274 | 0.225 | 0.222 | 0.191 | 0.176 | 0.331 | 0.465 | 0.267 | 0.186 | 0.219
NCI-H1944 | 0.216 | 0.227 | 0.221 | 0.193 | 0.236 | 0.588 | 0.694 | 0.502 | 0.53 | 0.643 | 0.438 | 0.448 | 0.288 | 0.228 | 0.211 | 0.643 | 0.645 | 0.633 | 0.389 | 0.369
NCI-H1975 | 0.361 | 0.35 | 0.337 | 0.356 | 0.352 | 0.757 | 0.716 | 0.704 | 0.669 | 0.785 | 0.247 | 0.205 | 0.182 | 0.209 | 0.188 | 0.198 | 0.161 | 0.162 | 0.174 | 0.142
NCI-H1993 | 0.567 | 0.702 | 0.537 | 0.434 | 0.649 | – | 0.633 | 0.727 | 0.567 | 0.688 | 0.542 | 0.583 | 0.607 | 0.506 | 0.403 | 0.725 | 0.826 | 0.787 | 0.696 | 0.674
NCI-H2009 | 0.311 | 0.523 | 0.301 | 0.297 | 0.309 | 0.736 | 0.672 | 0.715 | 0.736 | 0.717 | 0.902 | 0.727 | 0.439 | 0.357 | 0.341 | 0.929 | 0.68 | 0.54 | 0.328 | 0.348
NCI-H2023 | 0.594 | 0.623 | 0.567 | 0.537 | 0.668 | 0.739 | 0.4 | 0.545 | 0.723 | 0.9 | 0.14 | 0.175 | 0.144 | 0.126 | 0.115 | 0.317 | 0.386 | 0.153 | 0.138 | 0.14
NCI-H2085 | 0.257 | 0.26 | 0.273 | 0.272 | 0.23 | 0.832 | 0.721 | 0.746 | 0.832 | 0.769 | 0.782 | 0.807 | 0.511 | 0.513 | 0.364 | 0.436 | 0.404 | 0.323 | 0.372 | 0.344
NCI-H2087 | 0.872 | 0.953 | 0.801 | 0.944 | 0.905 | 0.939 | 0.694 | 0.474 | 0.671 | 0.63 | 0.573 | 0.49 | 0.451 | 0.291 | 0.267 | 0.172 | 0.175 | 0.204 | 0.135 | 0.158
NCI-H2126 | 0.634 | 0.569 | 0.609 | 0.554 | 0.543 | 0.738 | 0.578 | 0.725 | 0.614 | 0.81 | 0.68 | 0.648 | 0.391 | 0.453 | 0.341 | 0.811 | 0.723 | 0.547 | 0.492 | 0.485
NCI-H2170 | 0.523 | 0.713 | 0.605 | 0.384 | 0.566 | 0.88 | – | 0.793 | 0.718 | 0.962 | 0.276 | 0.221 | 0.227 | 0.217 | 0.21 | 0.645 | 0.641 | 0.488 | 0.286 | 0.253
NCI-H2228 | 0.634 | 0.505 | 0.52 | 0.54 | 0.601 | 0.719 | 0.763 | 0.633 | 0.563 | 0.529 | 0.232 | 0.208 | 0.179 | 0.166 | 0.163 | 0.102 | 0.134 | 0.116 | 0.148 | 0.165
